# Experimental data: US6544985B2, “Dihydro-benzo [b][1,4]diazepin-2-one derivatives” (Hoffman-La Roche Inc., priority 2001, dated 2003)
row,SMILES,melting point
1,"CCCN(C)c1cc2c(cc1C#N)NC(=O)CC(c1cccc(-c3cc(C)no3)c1)=N2 [Example 106, 2-[3-(3-Methyl-isoxazol-5-yl)-phenyl]-8-(methyl-propyl-amino)-4-oxo-4,5-dihydro-3H-benzo[b][1,4]diazepine-7-carbonitrile]",133 °C
2,"Cc1cc(-c2cccc(C3=Nc4cc(N(C)C(C)C)c(C#N)cc4NC(=O)C3)c2)on1 [Example 108, 8-(Isopropyl-methyl-amino)-2-[3-(3-methyl-isoxazol-5-yl)-phenyl]-4-oxo-4,5-dihydro-3H-benzo[b][1,4]diazepine-7-carbonitrile]",197 °C
3,"CC(C)N(C)c1cc2c(cc1C#N)NC(=O)CC(c1cccc(-n3nncc3CO)c1)=N2 [Example 109, 2-[3-(5-Hydroxymethyl-[1,2,3]triazol-1-yl)-phenyl]-8-(isopropyl-methyl-amino)-4-oxo-4,5-dihydro-3H-benzo[b][1,4]diazepine-7-carbonitrile]",206 °C
4,"Cc1cc(-c2cccc(C3=Nc4cc(N(C)CC(C)C)c(C#N)cc4NC(=O)C3)c2)on1 [Example 110, 8-(Isobutyl-methyl-amino)-2-[3-(3-methyl-isoxazol-5-yl)-phenyl]-4-oxo-4,5-dihydro-3H-benzo[b][1,4]diazepine-7-carbonitrile]",170 °C
5,"Cc1cc(-c2cccc(C3=Nc4cc(N5CCCCC5)c(C#N)cc4NC(=O)C3)c2)on1 [Example 112, 2-[3-(3-Methyl-isoxazol-5-yl)-phenyl]-4-oxo-8-piperidin-1-yl-4,5-dihydro-3H-benzo[b][1,4]diazepine-7-carbonitrile]",246 °C
6,"CCCN(C)c1cc2c(cc1C(F)(F)F)NC(=O)CC(c1cccc(-n3nncc3CO)c1)=N2 [Example 115, 4-[3-(5-Hydroxymethyl-[1,2,3]triazol-1-yl)-phenyl]-7-(methyl-propyl-amino)-8-trifluoromethyl-1,3-dihydro-benzo[b][1,4]diazepin-2-one]",230 °C
7,"CCCN(C)c1cc2c(cc1C(F)(F)F)NC(=O)CC(c1cccc(-c3cc(C)no3)c1)=N2 [Example 116, 4-[3-(3-Methyl-isoxazol-5-yl)-phenyl]-7-(methyl-propyl-amino)-8-trifluoromethyl-1,3-dihydro-benzo[b][1,4]diazepin-2-one]",193 °C
8,"Cc1cc(-c2cccc(C3=Nc4cc(N(C)CC(C)C)c(C(F)(F)F)cc4NC(=O)C3)c2)on1 [Example 118, 7-(Isobutyl-methyl-amino)-4-[3-(3-methyl-isoxazol-5-yl)-phenyl]-8-trifluoromethyl-1,3-dihydro-benzo[b][1,4]diazepin-2-one]",195 °C
9,"CC(C)N(C)c1cc2c(cc1C(F)(F)F)NC(=O)CC(c1cccc(-n3nncc3CO)c1)=N2 [Example 119, 4-[3-(5-Hydroxymethyl-[1,2,3]triazol-1-yl)-phenyl]-7-(isopropyl-methyl-amino)-8-trifluoromethyl-1,3-dihydro-benzo[b][1,4]diazepin-2-one]",234 °C
10,"Cc1cc(-c2cccc(C3=Nc4cc(N(C)C(C)C)c(C(F)(F)F)cc4NC(=O)C3)c2)on1 [Example 120, 7-(Isopropyl-methyl-amino)-4-[3-(3-methyl-isoxazol-5-yl)-phenyl]-8-trifluoromethyl-1,3-dihydro-benzo[b][1,4]diazepin-2-one]",199 °C
11,"CCCN(C)c1cc2c(cc1Cl)NC(=O)CC(c1cccc(-n3nncc3CN(CC)CC)c1)=N2 [Example 123, 8-Chloro-4-[3-(5-diethylaminomethyl-[1,2,3]triazol-1-yl)-phenyl]-7-(methyl-propyl-amino)-1,3-dihydro-benzo[b][1,4]diazepin-2-one]",151 °C
12,"CCCN(C)c1cc2c(cc1Cl)NC(=O)CC(c1cccc(-n3nncc3CN(C)C(C)C)c1)=N2 [Example 124, 8-Chloro-4-(3-{5-[(isopropyl-methyl-amino)-methyl]-[1,2,3]triazol-1-yl}-phenyl)-7-(methyl-propyl-amino)-1,3-dihydro-benzo[b][1,4]diazepin-2-one]",148 °C
13,"CC(C)N(C)c1cc2c(cc1Cl)NC(=O)CC(c1cccc(-n3nncc3CN3CCCC3)c1)=N2 [Example 125, 8-Chloro-7-(isopropyl-methyl-amino)-4-[3-(5-pyrrolidin-1-ylmethyl-[1,2,3]triazol-1-yl)-phenyl]-1,3-dihydro-benzo[b][1,4]diazepin-2-one]",172 °C
14,"CC(C)CN(C)c1cc2c(cc1Cl)NC(=O)CC(c1cccc(-n3nncc3CN3CCCC3)c1)=N2 [Example 126, 8-Chloro-7-(isobutyl-methyl-amino)-4-[3-(5-pyrrolidin-1-ylmethyl-[1,2,3]triazol-1-yl)-phenyl]-1,3-dihydro-benzo[b][1,4]diazepin-2-one]",190 °C
15,"CC(C)CN(C)c1cc2c(cc1Cl)NC(=O)CC(c1cccc(-n3nncc3CN(C)C)c1)=N2 [Example 128, 8-Chloro-4-[3-(5-dimethylaminomethyl-[1,2,3]triazol-1-yl)-phenyl]-7-(isobutyl-methyl-amino)-1,3-dihydro-benzo[b][1,4]diazepin-2-one]",199 °C
16,"CC(C)N(C)c1cc2c(cc1Cl)NC(=O)CC(c1cccc(-n3nncc3CN3CCC3)c1)=N2 [Example 129, 4-[3-(5-Azetidin-1-ylmethyl-[1,2,3]triazol-1-yl)-phenyl]-8-chloro-7-(isopropyl-methyl-amino)-1,3dihydro-benzo[b][1,4]diazepin-2-one]",177 °C
17,"CC(C)CN(C)c1cc2c(cc1Cl)NC(=O)CC(c1cccc(-n3nncc3CN3CCC3)c1)=N2 [Example 130, 4-[3-(5-Azetidin-1-ylmethyl-[1,2,3]triazol-1-yl)-phenyl]-8-chloro-7-(isobutyl-methyl-amino)-1,3-dihydro-benzo[b][1,4]diazepin-2-one]",191 °C
18,"Cc1cc2c(cc1N(C)CC(C)C)N=C(c1cccc(-n3nncc3CO)c1)CC(=O)N2 [Example 132, 4-[3-(5-Hydroxymethyl-[1,2,3]triazol-1-yl)-phenyl]-7-(isobutyl-methyl-amino)-8-methyl-1,3-dihydro-benzo[b][1,4]diazepin-2-one]",198 °C
19,"Cc1cc(-c2cccc(C3=Nc4cc(N(C)CC(C)C)c(C)cc4NC(=O)C3)c2)on1 [Example 134, 7-(Isobutyl-methyl-amino)-8-methyl-4-[3-(3-methyl-isoxazol-5-yl)-phenyl]-1,3-dihydro-benzo[b][1,4]diazepin-2-one]",187 °C
20,"Cc1cc(-c2cccc(C3=Nc4cc(N5CCCC5)c(C)cc4NC(=O)C3)c2)on1 [Example 135, 8-Methyl-4-[3-(3-methyl-isoxazol-5-yl)-phenyl]-7-pyrrolidin-1-yl-1,3-dihydro-benzo[b][1,4]diazepin-2-one]",211 °C
21,"CC(C)CN(C)c1cc2c(cc1C(F)(F)F)NC(=O)CC(c1cccc(-n3nncc3CN(C)C)c1)=N2 [Example 136, 4-[3-(5-Dimethylaminomethyl-[1,2,3]triazol-1-yl)-phenyl]-7-(isobutyl-methyl-amino)-8-trifluoromethyl-1,3-dihydro-benzo[b][1,4]diazepin-2-one]",182 °C
22,"CC(C)CN(C)c1cc2c(cc1C#N)NC(=O)CC(c1cccc(-n3nncc3CN3CCCC3)c1)=N2 [Example 137, 8-(Isobutyl-methyl-amino)-4-oxo-2-[3-(5-pyrrolidin-1-ylmethyl-[1,2,3]triazol-1-yl)-phenyl]-4,5-dihydro-3H-benzo[b][1,4]diazepine-7-carbonitrile]",174 °C
23,"Cc1cc2c(cc1N(C)CC(C)C)N=C(c1cccc(-n3nncc3CN3CCCC3)c1)CC(=O)N2 [Example 139, 7-(Isobutyl-methyl-amino)-8-methyl-4-[3-(5-pyrrolidin-1-ylmethyl-[1,2,3]triazol-1-yl)-phenyl]-1,3-dihydro-benzo[b][1,4]diazepin-2-one]",177 °C
24,"CC(C)CN(C)c1cc2c(cc1C(F)(F)F)NC(=O)CC(c1cccc(-n3nncc3CN(C)C(C)C)c1)=N2 [Example 141, 7-(Isobutyl-methyl-amino)-4-(3-{5-[(isopropyl-methyl-amino)-methyl]-[1,2,3]triazol-1yl}-phenyl)-8-trifluoromethyl-1,3-dihydro-benzo[b][1,4]diazepin-2-one]",157 °C
25,"CC(C)N(C)c1cc2c(cc1Cl)NC(=O)CC(c1cccc(-n3nncc3CNC3CCCC3)c1)=N2 [Example 142, 8-Chloro-4-[3-(5-cyclopentylaminomethyl-[1,2,3]triazol-1-yl)-phenyl]-7-(isopropyl-methyl-amino)-1,3-dihydro-benzo[b][1,4]diazepin-2-one]",174 °C
26,"Cc1cc2c(cc1N(C)CC(C)C)N=C(c1cccc(-n3nncc3CNCC3CC3)c1)CC(=O)N2 [Example 143, 4-(3-{5-[(Cyclopropylmethyl-amino)-methyl]-[1,2,3]triazol-1-yl}-phenyl)-7-(isobutyl-methyl-amino)-8-methyl-1,3-dihydro-benzo[b][1,4]diazepin-2-one]",184 °C
27,"CC(C)CN(C)c1cc2c(cc1Cl)NC(=O)CC(c1cccc(-n3nncc3CN3CCCCC3)c1)=N2 [Example 144, 8-Chloro-7-(isobutyl-methyl-amino)-4-[3-(5-piperidin-1-ylmethyl-[1,2,3]triazol-1-yl)-phenyl]-1,3-dihydro-benzo[b][1,4]diazepin-2-one]",169 °C
28,"CC(C)NCc1cnnn1-c1cccc(C2=Nc3cc(N(C)C(C)C)c(Cl)cc3NC(=O)C2)c1 [Example 145, 8-Chloro-4-{3-[5-(isopropylamino-methyl)-[1,2,3]triazol-1-yl]-phenyl}-7-(isopropyl-methyl-amino)-1,3-dihydro-benzo[b][1,4]diazepin-2-one]",208 °C
29,"COCCN(C)Cc1cnnn1-c1cccc(C2=Nc3cc(N(C)C(C)C)c(Cl)cc3NC(=O)C2)c1 [Example 146, 8-Chloro-7-(isopropyl-methyl-amino)-4-[3-(5-{[(2-methoxy-ethyl)-methyl-amino]-methyl}-[1,2,3]triazol-1-yl)-phenyl]-1,3-dihydro-benzo[b][1,4]diazepin-2-one]",119 °C
30,"CC(C)N(C)Cc1cnnn1-c1cccc(C2=Nc3cc(N(C)C(C)C)c(Cl)cc3NC(=O)C2)c1 [Example 148, 8-Chloro-7-(isopropyl-methyl-amino)-4-(3-{5-[(isopropyl-methyl-amino)-methyl]-[1,2,3]triazol-1-yl}-phenyl)-1,3-dihydro-benzo[b][1,4]diazepin-2-one]",180 °C
